These results are taken from patent US9265845B2, “Imaging methods using engineered integrin binding peptides” (The Board of Trustees of the Leland Stanford Junior …, priority 2006, dated 2016).

Entries after “also recorded” stand apart in the source; their conditions may differ.

The target of one series is α5β1 integrin (Homo sapiens, UniProt P05556+P08648). As to the kind of experiment: Competition of 125I-echistatin to detergent-solubilized plate-coated integrin. As to conditions: 0.06 nM 125I echistatin, 5 nM and 50 nM peptide. Type of series: binding. How it is done: (§1) FIG. 10A through FIG. 10D is a series of histograms showing binding specificities to integrins αvβ3, αvβ5, α5β1, and αiibβ3 for engineered EETI-RGD peptides compared to controls. Error bars represent experiments performed in triplicate. Competition binding of 0.06 nM ^125I echistatin with 5 nM (black bars) and 50 nM (grey bars) unlabeled peptide to plate-coated integrins was measured. […] The engineered peptides have very little binding to αiibβ3 integrin.
(§2) This was done by competition of ^125I-echistatin to detergent-solubilized integrin receptors coated onto microtiter plates (see FIG. 10). […] This is consistent with previous studies which have shown αv integrin receptors can accommodate a wide range of RGD-containing cyclic structures. […] However, since α5β1 integrins are expressed on many tumors and are all involved in mediating angiogenesis and metastasis, a broad spectrum agent that targets all three integrins will be useful for diagnostic and therapeutic applications. With the exception of echistatin, all of the RGD-containing peptides bound weakly to the αiibβ3 receptor, showing the specificity of the present peptides for the αv and α5-containing integrin heterodimers. This characteristic is valuable for molecular imaging and therapeutic applications, since binding to αiibβ3 on platelet cells prevents blood clotting and would lead to non-specific in vivo effects.

A further series addresses αvβ3 integrin (Homo sapiens, UniProt P05106+P06756). The description is as above. Type of series: binding. The conditions noted are these: 0.06 nM 125I echistatin, 5 nM and 50 nM peptide. Here is the method:
as §1, §2

A further series concerns the target αvβ5 integrin (Homo sapiens, UniProt P06756+P18084). Described as above. Type of series: binding. The conditions noted are these: 0.06 nM 125I echistatin, 5 nM and 50 nM peptide. Here is the method:
as §1, §2

In series [1] the test system is U87MG glioblastoma cells. Briefly: Blocking of U87MG cell adhesion to fibronectin-coated plates. Type of series: cell-based. The text has this: (§3) The present engineered peptides may be used in a variety of ways. If the peptides are attached to a surface, they may be used to attract/recruit cells to grow on the surface. For example, the present peptides may be applied to prosthetic devices, implants, bone grafts, and the like to promote tissue growth and healing at the site. They may be attached to culture dishes and promote attachment and differentiation of cells in culture. In addition, the present engineered peptides may be used to modulate cell binding to selected integrins such as α5β1, αvβ3 and αvβ5, particularly αvβ3, by adding the peptides to a cell culture to prevent cells expressing these integrins from adhering to a substrate. […] Also, the present 2.5F, 2.5D and 1.5B peptides were tested for blocking adhesion of U87MG glioblastoma cells to fibronectin-coated plates.
(§4) In another experiment, the ability of engineered knottin peptides to block U87MG cell adhesion to vitronectin- and fibronectin-coated microtiter plates. Vitronectin is a natural ligand for several integrins, including αvβ3 and αvβ5. The RGD-containing peptides were all able to inhibit U87MG cell adhesion to vitronectin-coated plates in a dose-responsive manner. […] Fibronectin also binds to several integrins, (including αvβ3 and α5β1), but the α5β1 integrin receptor is generally selective for fibronectin.

Series [2] concerns U87MG glioblastoma cells. As to the kind of experiment: Blocking of U87MG cell adhesion to vitronectin-coated plates. Type of series: cell-based. As to conditions: vitronectin-coated plates.
From the text: as §3, §4
Whether the engineered AgRP peptides could block vitronectin-mediated adhesion to the U87MG cells was tested using an analogous assay. […] The AgRP peptides may not effectively block U87MG adhesion compared to the K562-αvβ3 cells because the αvβ5 integrins co-expressed on the surface of the U87MG cells could also contribute to vitronectin-mediated adhesion and compensate for the loss of αvβ3 integrin function.

The next series concerns U87MG tumor. As to the kind of experiment: MicroPET imaging and biodistribution of radiolabeled peptides in U87MG tumor-bearing mice. The class given is in vivo, mouse. Here is the method:
MicroPET imaging of tumor-bearing mice is performed on a microPET R4 rodent model scanner (Concorde Microsystems Inc, Knoxyille, Tenn.). U87MG tumor bearing mice are injected with PET imaging agent via the tail vein. At various times post injection, the mice are anesthetized with 2% isoflurane, and 10 min static scans are obtained. Images are reconstructed by a two-dimensional ordered expectation maximum subset algorithm as previously described. Regions of interest (ROI) are drawn over the tumor on decay corrected whole body images and ROI derived % injected dose per gram of tissue is determined. Statistical analysis is performed using the student's t-test for unpaired data. A 95% confidence level is used to determine statistical significance.
Female athymic mice bearing U87MG tumors were injected with 80-150 μCi of ^64Cu-DOTA-knottin 2.5D or 7-9 μCi of [^18F]-FB-E[knottin 2.5D]. Static images were taken at various timepoints post injection using a microPET R4 rodent model scanner (Concorde Microsystems Inc, Knoxyille, Tenn.). […] Uptake was also observed in the kidney as both probes cleared through the bladder.
Mice are sacrificed by exanguinations at various time points postinjection. Blood, tumor and the major organs and tissues are collected, wet-weighed and measured in a γ-counter. The % injected dose per gram is determined for each sample. For each mouse, radioactivity of the tissue samples is calibrated against a known aliquot of the injectate. Values are reported as the mean±standard deviation.
The following Table 10 quantifies the ^64Cu-DOTA knottin uptake by direct tissue sampling of the mice up to 24 hours post injection and is reported in % ID (percent injected dose)/gram. Similar results were obtained with [^18F]-FB-E[knottin 2.5D].
A U87MG glioblastoma xenograft mouse model was used. U87MG cells were maintained at 37° C. in a humidified atmosphere containing 5% CO2 in Dulbecco's modified eagle medium, 10% heat-inactivated fetal bovine serum, and penicillin-streptomycin (all from Invitrogen). Animal procedures were carried out according to a protocol by Stanford University Administrative Panels on Laboratory Animal Care. Female athymic nude mice (nu/nu), obtained at 4-6 weeks of age (Charles River Laboratories, Inc.), were injected subcutaneously in the right or left shoulder with 2×10^7 U87MG glioblastoma cells suspended in 100 μL of PBS. Mice were used for in vivo imaging studies when their tumors reached approximately 8 to 10 millimeters in diameter.
U87MG tumor-bearing mice (n=3 or more for each probe) were injected with ˜100 μCi of ^64Cu-DOTA-conjugated peptides via the tail vein and imaged with a microPET R4 rodent model scanner (Siemens Medical) using 3 or 5 min static scans. […] Images were reconstructed by a two dimensional ordered expectation maximum subset algorithm and calibrated as previously described (Wu, Y, Zhang, X, Xiong, Z, et al. microPET imaging of glioma integrin {alpha}v{beta}3 expression using (64)Cu-labeled tetrameric RGD peptide. J Nucl Med 2005; 46:1707-18). ROIs were drawn over the tumor on decay-corrected whole body images using ASIPro VM software (Siemens Medical). The mean counts per pixel per minute were obtained from the ROI and converted to counts per milliliter per minute with a calibration constant. ROIs were converted to counts/g/min, and % ID/g values were determined assuming a tissue density of 1 g/mL. No attenuation correction was performed.

In the case of `CC[C@H](C)[C@@H]1NC(=O)[C@H]([C@@H](C)O)NC(=O)[C@@H](NC(=O)CN)CSSC[C@@H]2NC(=O)CNC(=O)[C@H](C)NC(=O)[C@H](CC(C)C)NC(=O)[C@@H]3CSSC[C@@H](C(=O)NCC(=O)O)NC(=O)[C@H](Cc4ccccc4)NC(=O)CNC(=O)[C@H](CC(N)=O)NC(=O)[C@@H]4CCCN4C(=O)CNC(=O)[C@H](CSSC[C@H](NC(=O)[C@H](CCC(=O)O)NC(=O)[C@H](CO)NC(=O)[C@@H]4CCCN4C(=O)[C@H](C)NC(=O)[C@H](Cc4c[nH]c5ccccc45)NC(=O)[C@H](CC(=O)O)NC(=O)CNC(=O)[C@H](CCCNC(=N)N)NC(=O)CNC1=O)C(=O)N[C@@H](CO)C(=O)N[C@@H](CCC(N)=O)C(=O)N[C@@H](CC(=O)O)C(=O)N[C@@H](CO)C(=O)N[C@@H](CC(=O)O)C(=O)N3)NC(=O)[C@H](C(C)C)NC2=O` [1.5B], the “binding to α5β1 integrin, in words” value on α5β1 integrin is reported as “only minimal binding”. Besides, on αvβ3 integrin, the “binding to αvβ3 integrin, in words” value is “strongest levels of binding”. For the same compound, the “binding to αvβ5 integrin, in words” value on αvβ5 integrin is on record as “strongest levels of binding”. For the same compound, the “blocking of U87MG cell adhesion to fibronectin, in words” value with U87MG glioblastoma cells [1] was “only echistatin and polypeptide 2.5F blocked adhesion”.

As for `CC(C)C[C@@H]1NC(=O)[C@@H]2CSSC[C@@H](C(=O)NCC(=O)O)NC(=O)[C@H](Cc3ccccc3)NC(=O)CNC(=O)[C@H](CC(N)=O)NC(=O)[C@@H]3CCCN3C(=O)CNC(=O)[C@@H]3CSSC[C@H](NC(=O)[C@H]([C@@H](C)O)NC(=O)[C@H](CC(C)C)NC(=O)[C@@H]4CCCN4C(=O)[C@@H]4CCCN4C(=O)[C@H](CC(N)=O)NC(=O)[C@H](CC(=O)O)NC(=O)CNC(=O)[C@H](CCCNC(=N)N)NC(=O)[C@@H]4CCCN4C(=O)[C@H](CCCNC(=N)N)NC(=O)[C@@H]4CCCN4C(=O)[C@@H](NC(=O)CN)CSSC[C@H](NC(=O)CNC(=O)[C@H](C)NC1=O)C(=O)N[C@@H](C(C)C)C(=O)N3)C(=O)N[C@@H](CO)C(=O)N[C@@H](CCC(N)=O)C(=O)N[C@@H](CC(=O)O)C(=O)N[C@@H](CO)C(=O)N[C@@H](CC(=O)O)C(=O)N2` [2.5F], the “binding to α5β1 integrin, in words” value on α5β1 integrin is listed as “binds with strong affinity”. For the same compound, on αvβ3 integrin, the “binding to αvβ3 integrin, in words” value was “strongest levels of binding”. Further, at αvβ5 integrin, the “binding to αvβ5 integrin, in words” value is recorded as “strongest levels of binding”. Moreover, in the series on U87MG glioblastoma cells [2], the “blocking of U87MG cell adhesion to vitronectin, in words” value is “blocked adhesion better than controls”. In addition, the “blocking of U87MG cell adhesion to fibronectin, in words” value with U87MG glioblastoma cells [1] was “blocked adhesion; also recorded: able to block”. The “liver uptake, in words” value in the series with U87MG tumor (64Cu-DOTA-labeled peptides, compared to 64Cu-DOTA-c(RGDyK)) is “lower liver uptake”. In addition, the “tumor/blood ratios, in words” value in the series on U87MG tumor (PET studies, 4 h post injection, compared to 2.5D) is listed as “much higher tumor/blood ratios”. Further, the “PET tumor targeting / imaging signal, in words” value in the series with U87MG tumor (radiolabeled peptides, U87MG tumor-bearing mice) is recorded as “slower tumor washout compared to 2.5D”.
